One experiment concerns the target T1, L858R/T790M/C797S EGFR (Homo sapiens, UniProt P00533, C797S/L858R/T790M).
T1 construct: expressed in transfected cells; host or cells: H1975 clone #25 (lentiviral over-expression, endogenous EGFR knocked out by sgRNA)
Put plainly: EGFR degradation HTRF assay in H1975-clone #25 (LTC) cells. Conditions: 16h treatment; for DC50: H1975 # 25-LTC (L858R/T790M/C797S), HTRF; for Dmax: NCI-H1975, H1975 # 25-LTC (L858R/T790M/C797S), maximum percentage of degradation. It counts as cell-based. A digest of the protocol: (§1)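 DC50 from a four-parameter fit of HTRF signal. H1975 mutant-EGFR clones with endogenous EGFR knocked out; 16 h treatment, 10 uM top, 5-fold × 8.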
On the technique in general: Time-resolved FRET reads energy transfer from a long-lived donor to a nearby acceptor.

The next experiment relates to Del19/T790M/C797S EGFR. As to the kind of experiment: EGFR degradation HTRF assay in H1975-clone #28 (DTC) cells. It counts as cell-based. The settings on record: H1975 # 28 DTC (Del19/T790M/C797S), 16h treatment; for DC50: HTRF; for Dmax (%): maximum percentage of degradation. A digest of the protocol:
as §1

T1 sequence (P00533 25-1210 T790M/C797S/L858R): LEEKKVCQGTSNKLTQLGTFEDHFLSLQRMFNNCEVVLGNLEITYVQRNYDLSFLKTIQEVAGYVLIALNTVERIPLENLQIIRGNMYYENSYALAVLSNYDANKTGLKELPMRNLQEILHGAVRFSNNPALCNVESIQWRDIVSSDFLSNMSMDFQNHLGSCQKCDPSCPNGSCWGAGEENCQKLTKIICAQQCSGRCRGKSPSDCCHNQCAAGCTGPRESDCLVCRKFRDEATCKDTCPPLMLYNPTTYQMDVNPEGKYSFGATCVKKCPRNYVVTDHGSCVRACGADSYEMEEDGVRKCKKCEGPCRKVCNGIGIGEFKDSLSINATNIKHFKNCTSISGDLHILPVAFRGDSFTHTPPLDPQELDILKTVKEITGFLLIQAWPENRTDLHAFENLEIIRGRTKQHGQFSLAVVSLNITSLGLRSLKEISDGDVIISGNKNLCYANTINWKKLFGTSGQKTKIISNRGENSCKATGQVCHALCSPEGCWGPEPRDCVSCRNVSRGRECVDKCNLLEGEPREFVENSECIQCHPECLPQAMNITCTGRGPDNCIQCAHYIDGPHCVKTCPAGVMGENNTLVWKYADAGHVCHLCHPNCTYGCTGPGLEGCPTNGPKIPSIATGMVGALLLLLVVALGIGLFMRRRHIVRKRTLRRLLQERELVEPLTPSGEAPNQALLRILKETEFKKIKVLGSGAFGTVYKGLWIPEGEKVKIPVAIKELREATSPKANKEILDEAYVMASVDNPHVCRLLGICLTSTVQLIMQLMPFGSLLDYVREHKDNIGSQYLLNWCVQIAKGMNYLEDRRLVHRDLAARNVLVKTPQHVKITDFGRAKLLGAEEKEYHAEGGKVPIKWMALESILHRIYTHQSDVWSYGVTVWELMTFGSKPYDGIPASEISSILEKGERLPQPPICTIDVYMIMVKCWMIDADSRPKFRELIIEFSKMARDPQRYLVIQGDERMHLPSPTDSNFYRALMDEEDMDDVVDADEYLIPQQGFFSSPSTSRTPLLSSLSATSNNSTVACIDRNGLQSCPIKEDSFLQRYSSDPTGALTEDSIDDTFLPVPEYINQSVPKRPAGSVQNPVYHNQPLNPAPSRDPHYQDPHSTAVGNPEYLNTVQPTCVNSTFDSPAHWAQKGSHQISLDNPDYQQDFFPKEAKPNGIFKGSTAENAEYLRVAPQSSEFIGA

Broadly, the DC50 is the midpoint of the concentration-degradation curve. Low values mean degradation at low concentration, high ones degradation only at high concentration. The term Dmax denotes the greatest extent of degradation seen. A lower Dmax goes with a partial loss of target. On L858R/T790M/C797S EGFR, `CO[C@H]1CN(CCc2cc(F)c([C@H]3CCC(=O)NC3=O)c(F)c2)CC[C@H]1N(C)C(=O)c1ccc2c(c1)N1C[C@H](C)CCCOc3c(cnn3C)-c3cc(cc(C)n3)C(=O)/N=C/1N2` [Example 255, (R,E)-N—((3S,4R)-1-(4-((R)-2,6-dioxopiperidin-3-yl)-3,5-difluorophenethyl)-3-methoxypiperidin-4-yl)-N,1^1,2^6,7-tetramethyl-3-oxo-5^2,5^3-dihydro-1^1H,5^1H-11-oxa-4-aza-5(2,1)-benzo[d]imidazola-2(2,4) -pyridina-1(4,5)-pyrazolacycloundecaphane-5^6-carboxamide] returned a DC50 of 0.599 nM and a Dmax of 91.1%. Besides, in the experiment on Del19/T790M/C797S EGFR, the DC50 is 0.566 nM and the “Dmax (%)” value is 81.82%.

At L858R/T790M/C797S EGFR, `Cc1cc2cc(n1)-c1cnn(C)c1OCCC[C@@H](C)CN1/C(=N/C2=O)Nc2ccc(C(=O)N3CC4(C3)CN(C(=O)C3CN(c5cc(F)c([C@H]6CCC(=O)NC6=O)c(F)c5)C3)C4)cc21` [Example 229, (R)-3-(2,6-difluoro-4-(3-(6-((R,E)-1^1,2^6,7-trimethyl-3-oxo-5^2,5^3-dihydro-1^1H,5^1H-11-oxa-4-aza-5(2,1)-benzo[d]imidazola-2(2,4)-pyridina-1(4,5)-pyrazolacycloundecaphane-5^6-carbonyl)-2,6-diazaspiroheptane-2-carbonyl)azetidin-1-yl)phenyl)piperidine-2,6-dione] registered a DC50 of 1.27 nM and a Dmax of 86.9%. Besides, in the experiment on Del19/T790M/C797S EGFR, it took 1.79 nM to reach half-maximal degradation (DC50) and the “Dmax (%)” value amounted to 78.12%.

For `Cc1cc2cc(n1)-c1cnn(C)c1OCCC[C@@H](C)CN1/C(=N/C2=O)Nc2ccc(N3CCN(CCc4cc(F)c([C@H]5CCC(=O)NC5=O)c(F)c4)CC3)cc21` [Example 320, (R)-3-(2,6-difluoro-4-(2-(4-((R,E)-1^1,26,7-trimethyl-3-oxo-5^2,5^3-dihydro-1^1H,5^1H-11-oxa-4-aza-5(2,1)-benzo[d]imidazola-2(2,4)-pyridina-1(4,5)-pyrazolacycloundecaphane-5^6-yl)piperazin-1-yl)ethyl)phenyl)piperidine-2,6-dione], on L858R/T790M/C797S EGFR, the DC50 came out at 0.591 nM and the Dmax turned out to be 86.2%. Moreover, in the experiment with Del19/T790M/C797S EGFR, the DC50 stood at 0.674 nM and the “Dmax (%)” value came to 71.04%.

On L858R/T790M/C797S EGFR, `Cc1cc2cc(n1)-c1cnn(C)c1OCCC[C@@H](C)CN1/C(=N/C2=O)Nc2cc(C)c(C(=O)N(C)C3CCN(CCc4cc(F)c([C@H]5CCC(=O)NC5=O)c(F)c4)CC3)cc21` [Example 336, (R,E)-N-(1-(4-((R)-2,6-dioxopiperidin-3-yl)-3,5-difluorophenethyl)piperidin-4-yl)-N,1^1,2^6,5^5,7-penta methyl-3-oxo-5^2,5^3-dihydro-1^1H,5^1H-11-oxa-4-aza-5(2,1)-benzo[d]imidazola-2(2,4)-pyridina-1(4,5)-pyrazolacycloundecaphane-5^6-carboxamide] showed a DC50 of 0.386 nM and a Dmax of 88.4%. For the same compound, in the experiment with Del19/T790M/C797S EGFR, half-maximal degradation (DC50) was put at 0.304 nM and the “Dmax (%)” value is 72.28%.

At L858R/T790M/C797S EGFR, `Cc1cc2cc(n1)-c1cnn(C)c1OCCC[C@@H](C)CN1/C(=N/C2=O)Nc2ccc(N3CCC(C(=O)N4CC(Nc5cc(F)c([C@H]6CCC(=O)NC6=O)c(F)c5)C4)CC3)cc21` [Example 404, (R)-3-(2,6-difluoro-4-((1-(1-((R,E)-1^1,2^6,7-trimethyl-3-oxo-5^2,5^3-dihydro-1^1H,5^1H-li-oxa-4-aza-5(2,1)-benzo[d]imidazola-2(2,4)-pyridina-1(4,5)-pyrazolacycloundecaphane-5^4-yl)piperidine-4-carbonyl)azetidin-3-yl)amino)phenyl)piperidine-2,6-dione] returned a DC50 of 0.94 nM and a Dmax of 88.5%. Moreover, in the experiment on Del19/T790M/C797S EGFR, the DC50 came to 1.69 nM and the “Dmax (%)” value is reported as 83.57%.

For the compound `Cc1cc2cc(n1)-c1cnn(C)c1OCCC[C@@H](C)CN1/C(=N/C2=O)Nc2ccc(N3CC(NC4CCN(c5cc(F)c([C@H]6CCC(=O)NC6=O)c(F)c5)CC4)C3)cc21` [Example 454, (R)-3-(2,6-difluoro-4-(4-((1-((R,E)-1^1,2^6,7-trimethyl-3-oxo-5^2,5^3-dihydro-1^1H,5^1H-11-oxa-4-aza-5(2,1)-benzo[d]imidazola-2(2,4)-pyridina-1(4,5)-pyrazolacycloundecaphane-5-yl)azetidin-3-yl)amino)piperidin-1-yl)phenyl)piperidine-2,6-dione], on L858R/T790M/C797S EGFR, it took 1.08 nM to reach half-maximal degradation (DC50) and the Dmax was 86%. In addition, in the experiment on Del19/T790M/C797S EGFR, the DC50 came to 0.765 nM and the “Dmax (%)” value was 68.28%.

On to `Cc1cc2cc(n1)-c1cnn(C)c1OCCC[C@@H](C)CN1/C(=N/C2=O)Nc2ccc(C(=O)N(C)[C@@H]3CCN(CCc4cc(F)c([C@H]5CCC(=O)NC5=O)c(F)c4)C[C@@H]3F)cc21` [Example 344, (R,E)-N—((3S,4R)-1-(4-((R)-2,6-dioxopiperidin-3-yl)-3,5-difluorophenethyl)-3-fluoropiperidin-4-yl)-N,1^1,2^6,7-tetramethyl-3-oxo-5^2,5^3-dihydro-1^1H,5^1H-11-oxa-4-aza-5(2,1)-benzo[d]imidazola-2(2,4)-pyridina-1(4,5)-pyrazolacycloundecaphane-5^6-carboxamide], for which, on L858R/T790M/C797S EGFR, the DC50 turned out to be 0.386 nM and the Dmax amounted to 92.8%. Besides, in the experiment on Del19/T790M/C797S EGFR, the DC50 is 0.62 nM and the “Dmax (%)” value is recorded as 83.22%.

On L858R/T790M/C797S EGFR, `Cc1cc2cc(n1)-c1cnn(C)c1OCCC[C@@H](C)CN1/C(=N/C2=O)Nc2ccc(N3CCN(C4CCN(c5cc(F)c([C@H]6CCC(=O)NC6=O)c(F)c5)CC4)CC3=O)cc21` [Example 374, (R)-3-(2,6-difluoro-4-(4-(3-oxo-4-((R,E)-1^1,2^6,7-trimethyl-3-oxo-5^2,5^3-dihydro-1^1H,5^1H-11-oxa-4-aza-5(2,1)-benzo[d]imidazola-2(2,4)-pyridina-1(4,5)-pyrazolacycloundecaphane-5^6-yl)piperazin-1-yl)piperidin-1-yl)phenyl)piperidine-2,6-dione] yielded a DC50 of 0.591 nM and a Dmax of 92.7%. In the experiment with Del19/T790M/C797S EGFR, the DC50 amounted to 0.583 nM and the “Dmax (%)” value was 81.48%.

On L858R/T790M/C797S EGFR, `Cc1cc2cc(n1)-c1cnn(C)c1OCCC[C@@H](C)CN1/C(=N/C2=O)Nc2ccc(N(C)C3CCN(C4CCN(c5cc(F)c([C@H]6CCC(=O)NC6=O)c(F)c5)CC4)CC3)cc21` [Example 214, (R)-3-(2,6-difluoro-4-(4-(methyl((R,E)-1^1,2^6,7-trimethyl-3-oxo-5^2,5^3-dihydro-1^1H,5^1H-11-oxa-4-aza-5(2,1)-benzo[d]imidazola-2(2,4)-pyridina-1(4,5)-pyrazolacycloundecaphane-5-yl)amino)-[1,4′-bipiperidin]-1′-yl)phenyl)piperidine-2,6-dione] gave a DC50 of 2.59 nM and a Dmax of 79.4%. Further, in the experiment with Del19/T790M/C797S EGFR, it took 1.32 nM to reach half-maximal degradation (DC50) and the “Dmax (%)” value is recorded as 72.32%.

At L858R/T790M/C797S EGFR, `Cc1cc2cc(n1)-c1cnn(C)c1OCCC[C@@H](C)CN1/C(=N/C2=O)Nc2ccc(CN3C[C@@H]4C[C@H]3CN4C(=O)[C@@H]3CCN(c4cc(F)c([C@H]5CCC(=O)NC5=O)c(F)c4)C3)cc21` [Example 82, (R)-3-(2,6-difluoro-4-((R)-3-((1S,4S)-5-(((R,E)-1^1,2^6,7-trimethyl-3-oxo-5^2,5^3-dihydro-1^1H,5^1H-11-oxa-4-aza-5(2,1)-benzo[d]imidazola-2(2,4)-pyridina-1(4,5)-pyrazolacycloundecaphane-5^6-yl)methyl)-2,5-diazabicyclo[2.2.1]heptane-2-carbonyl)pyrrolidin-1-yl)phenyl)piperidine-2,6-dione] gave a DC50 of 0.6 nM and a Dmax of 88.6%. Also, in the experiment on Del19/T790M/C797S EGFR, half-maximal degradation (DC50) was put at 0.7 nM and the “Dmax (%)” value came out at 78.4%.

As for `Cc1cc2cc(n1)-c1cnn(C)c1OCCC[C@@H](C)CN1/C(=N/C2=O)Nc2ccc(C(=O)N3CC[C@@H](NCCc4cc(F)c([C@H]5CCC(=O)NC5=O)c(F)c4)C3)cc21` [Example 296, (R)-3-(2,6-difluoro-4-(2-(((R)-1-((R,E)-1^1,2^6,7-trimethyl-3-oxo-5^2,5^3-dihydro-1^1H,5^1H-11-oxa-4-aza-5(2,1)-benzo[d]imidazola-2(2,4)-pyridina-1(4,5)-pyrazolacycloundecaphane-5′-carbonyl)pyrrolidin-3-yl)amino)ethyl)phenyl)piperidine-2,6-dione], at L858R/T790M/C797S EGFR, half-maximal degradation (DC50) was put at 0.707 nM and the Dmax came to 84.8%. In the experiment with Del19/T790M/C797S EGFR, the DC50 was determined as 0.842 nM and the “Dmax (%)” value is given as 51.36%.

In the case of `Cc1cc2cc(n1)-c1cnn(C)c1OCCC[C@@H](C)CN1/C(=N/C2=O)Nc2ccc(N3CCC(C(=O)N(C)CCc4cc(F)c([C@H]5CCC(=O)NC5=O)c(F)c4)CC3)cc21` [Example 335, N-(4-((R)-2,6-dioxopiperidin-3-yl)-3,5-difluorophenethyl)-N-methyl-1-((R,E)-1^1,2^6,7-trimethyl-3-oxo-5^2,5^3-dihydro-1^1H,5^1H-11-oxa-4-aza-5(2,1)-benzo[d]imidazola-2(2,4)-pyridina-1(4,5)-pyrazolacycloundecaphane-5^6-yl)piperidine-4-carboxamide], on L858R/T790M/C797S EGFR, the DC50 was found to be 0.657 nM and the Dmax came to 79.4%. For the same compound, in the experiment on Del19/T790M/C797S EGFR, half-maximal degradation (DC50) was put at 0.789 nM and the “Dmax (%)” value was 60.16%.

(Values after US20240342292A1, “Compounds for the Degradation of EGFR Kinase” (BeiGene Switzerland GmbH, priority 2021, published 2024).)
